Converted amounts (≈) assume the structure as drawn.
How the values were obtained:
S. aureus NCTC 4163 = assay: MIC, twofold microdilution, standard strain; type: cell-based; conditions: Staphylococcus aureus, NCTC4163, 18 h
S. aureus ATCC 25923 = assay: MIC, twofold microdilution, standard strain; type: cell-based; conditions: Staphylococcus aureus, ATCC25923, 18 h
S. aureus ATCC 6538 = assay: MIC, twofold microdilution, standard strain; type: cell-based, Staphylococcus aureus; conditions: Staphylococcus aureus, ATCC6538; standard strain, 18 h
S. aureus ATCC 29213 = assay: MIC, twofold microdilution, standard strain; type: cell-based; conditions: Staphylococcus aureus, ATCC29213, 18 h
[1] = system: S. epidermidis ATCC 12228; assay: MIC, twofold microdilution, standard strain; type: cell-based; conditions: Staphylococcus epidermidis, ATCC12228, 18 h
[2] = system: S. epidermidis ATCC 35984; assay: MIC, twofold microdilution, standard strain; type: cell-based; conditions: Staphylococcus epidermidis, ATCC35984, 18 h
P. aeruginosa ATCC 15442 = assay: MIC, twofold microdilution, standard strain; type: cell-based, Pseudomonas aeruginosa; conditions: Pseudomonas aeruginosa, ATCC15442; standard strain, 18 h
E. coli ATCC 25922 = assay: MIC, twofold microdilution, standard strain; type: cell-based, Escherichia coli; conditions: Escherichia coli, ATCC25922; standard strain, 18 h
S. aureus 180 = assay: MIC, twofold microdilution, clinical strain; type: cell-based; conditions: Staphylococcus aureus, 18 h
S. aureus 5595 = assay: MIC, twofold microdilution, clinical strain; type: cell-based; conditions: Staphylococcus aureus, 18 h
S. aureus T5595 = assay: MIC, twofold microdilution, clinical strain; type: cell-based, Staphylococcus aureus; conditions: for MIC: Staphylococcus aureus, T5595, 18 h
S. aureus T5591 = assay: MIC, twofold microdilution, clinical strain; type: cell-based, Staphylococcus aureus; conditions: for MIC: Staphylococcus aureus, T5591, 18 h
S. epidermidis 4341 = assay: MIC, twofold microdilution, clinical strain; type: cell-based; conditions: Staphylococcus epidermidis, 18 h
S. epidermidis 5253 = assay: MIC, twofold microdilution, clinical strain; type: cell-based, Staphylococcus epidermidis; conditions: for MIC: Staphylococcus epidermidis, 5253, 18 h
S. epidermidis KR4243/1 = assay: MIC, twofold microdilution, clinical strain; type: cell-based; conditions: Staphylococcus epidermidis, 18 h
S. pasteuri KR 4358 = assay: MIC, twofold microdilution, clinical strain; type: cell-based; conditions: Staphylococcus pasteuri, KR4358, 18 h
P. aeruginosa 37 = assay: MIC, twofold microdilution, clinical strain; type: cell-based; conditions: Pseudomonas aeruginosa, 18 h
P. aeruginosa 659 = assay: MIC, twofold microdilution, clinical strain; type: cell-based; conditions: Pseudomonas aeruginosa, 18 h
E. coli 951 = assay: MIC, twofold microdilution, clinical strain; type: cell-based; conditions: Escherichia coli, 18 h
E. coli 520 = assay: MIC, twofold microdilution, clinical strain; type: cell-based; conditions: Escherichia coli, 18 h
E. coli 600 = assay: MIC, twofold microdilution, clinical strain; type: cell-based, Escherichia coli; conditions: Escherichia coli, 600, 18 h
E. cloacae 8 = assay: MIC, twofold microdilution, clinical strain; type: cell-based, Escherichia cloacae; conditions: Enterobacter cloacae, 8; clinical strain, 18 h
K. pneumoniae 28 = assay: MIC, twofold microdilution, clinical strain; type: cell-based; conditions: Klebsiella pneumoniae, 18 h
K. pneumoniae 510 = assay: MIC, twofold microdilution, clinical strain; type: cell-based, Klebsiella pneumoniae; conditions: Klebsiella pneumoniae, 510; clinical strain, 18 h
M. tuberculosis H37Rv = assay: Tuberculostatic activity, Microplate Alamar Blue Assay (MIC); type: cell-based, Mycobacterium tuberculosis; conditions: Mycobacterium tuberculosis, H37RV; MABA; read-out: MIC M. tuberculosis H37Rv
[3] = system: M. tuberculosis Spec. 192; assay: as above; type: cell-based; conditions: Mycobacterium tuberculosis, MABA, read-out: MIC M. tuberculosis Spec. 192 (sensitive to tuberculostatics)
PC3 cells = assay: MTT assay, cytotoxic activity; type: cell-based, human; conditions: Homo sapiens, PC-3, 72 h, MTT, 72 h
Experimental: Metastatic prostate cancer (PC3) and human immortal keratinocyte (HaCaT) cell lines were purchased from the American Type Culture Collection (ATCC, Rockville, MD, USA) and cultured in MEM (minimal essential medium, Thermo Sci, USA), RPMI 1640 (Roswell Park Memorial Institute, Biowest SAS, France), and DMEM (Dulbecco’s Modified Eagle’s Medium, Biowest SAS, France). Cells were seeded in 6 mL medium in a tissue culture flask (50 mL) in a 37 °C/5% CO2 humidified incubator. […] MTT analysis was performed according to a previous study.[59] Untreated cells were used as controls. Cell absorbance results were inserted into the formula for the relative MTT level (%). It allows to calculate the viability of cells under the influence of the tested compounds. Cell viability was expressed as the percentage of MTT reduction in cells treated with tested compounds compared to the control sample. The relative MTT level was calculated using the formula [100%] = A/B × 100% where A—the test sample absorbance and B—the control sample absorbance.

[4] = MTT assay, cytotoxic activity; type: cell-based; conditions: human, HaCaT cells (immortal keratinocytes); MTT, 72 h, normal cell line; read-out: IC50 HaCaT
Experimental: Cells were seeded in 6 mL medium in a tissue culture flask (50 mL) in a 37 °C/5% CO2 humidified incubator. […] MTT analysis was performed according to a previous study.[59] Untreated cells were used as controls. Cell absorbance results were inserted into the formula for the relative MTT level (%). It allows to calculate the viability of cells under the influence of the tested compounds. Cell viability was expressed as the percentage of MTT reduction in cells treated with tested compounds compared to the control sample. The relative MTT level was calculated using the formula [100%] = A/B × 100% where A—the test sample absorbance and B—the control sample absorbance.

[5] = system: Staphylococci (standard strains); assay: MIC, standard Gram-positive strains as a panel; type: cell-based, S. aureus, S. epidermidis; conditions: standard Gram-positive strains of Table 1; read-out: MIC toward standard Staphylococci (range over strains)
[6] = system: clinical bacterial strains; assay: MIC, clinical isolates as groups of strains; type: cell-based; conditions: for MIC: clinical strains, read-out: MIC against selected E. coli and E. cloacae strains

SMILES	MIC (S. aureus NCTC 4163)	MIC (S. aureus ATCC 25923)	MIC (S. aureus ATCC 6538)	MIC (S. aureus ATCC 29213)	MIC [1]	MIC [2]	MIC (P. aeruginosa ATCC 15442)	MIC (E. coli ATCC 25922)	MIC (S. aureus 180)	MIC (S. aureus 5595)	MIC (S. aureus T5595)	MIC (S. aureus T5591)	MIC (S. epidermidis 4341)	MIC (S. epidermidis 5253)	MIC (S. epidermidis KR4243/1)	MIC (S. pasteuri KR 4358)	MIC (P. aeruginosa 37)	MIC (P. aeruginosa 659)	MIC (E. coli 951)	MIC (E. coli 520)	also measured
O=C(O)c1cn(C2CC2)c2cc(N3CCN(C(=O)CCCCCBr)CC3)c(F)cc2c1=O [Compound 12, 7-[4-(6-Bromohexanoyl)-piperazin-1-yl]-1-cyclopropyl-6-fluoro-4-oxo-1,4-dihydro-quinoline-3-carboxylic Acid]	0.8 µg/mL (≈ 1.57 µM)	1.6 µg/mL (≈ 3.15 µM)	1.6 µg/mL (≈ 3.15 µM)	1.6 µg/mL (≈ 3.15 µM)	1.6 µg/mL (≈ 3.15 µM)	0.8 µg/mL (≈ 1.57 µM)	25.6 µg/mL (≈ 50.4 µM)	1.6 µg/mL (≈ 3.15 µM)	0.5 µg/mL (≈ 0.984 µM)	0.5 µg/mL (≈ 0.984 µM)	0.8 µg/mL (≈ 1.57 µM)	0.8 µg/mL (≈ 1.57 µM)	64 µg/mL (≈ 126 µM)	> 25.6 µg/mL	0.8 µg/mL (≈ 1.57 µM)	0.8 µg/mL (≈ 1.57 µM)	> 25.6 µg/mL	> 25.6 µg/mL	> 25.6 µg/mL	0.8 µg/mL (≈ 1.57 µM)	MIC (E. coli 600): 0.4 µg/mL (≈ 0.787 µM); MIC (E. cloacae 8): > 25.6 µg/mL; MIC (K. pneumoniae 28): > 25.6 µg/mL; MIC (K. pneumoniae 510): > 25.6 µg/mL; MIC (M. tuberculosis H37Rv): 1 µg/mL (≈ 1.97 µM); MIC [3]: 1 µg/mL (≈ 1.97 µM); IC50 (PC3 cells): 29.7 ± 5 µM; IC50 at 72 h [4]: > 100 µM; MIC [5]: 0.8 to 1.6 µg/mL (≈ 1.57 to 3.15 µM); MIC [6]: 0.1 to 0.8 µg/mL (≈ 0.197 to 1.57 µM)
O=C(O)c1cn(C2CC2)c2cc(N3CCN(C(=O)CC(F)(F)F)CC3)c(F)cc2c1=O [Compound 14, 7-[4-(3,3,3-Trifluoropropionyl)-piperazin-1-yl]-1-cyclopropyl-6-fluoro-4-oxo-1,4-dihydro-quinoline-3-carboxylic Acid]	0.4 µg/mL (≈ 0.906 µM)	0.4 µg/mL (≈ 0.906 µM)	0.4 µg/mL (≈ 0.906 µM)	0.4 µg/mL (≈ 0.906 µM)	0.4 µg/mL (≈ 0.906 µM)	0.4 µg/mL (≈ 0.906 µM)	> 25.6 µg/mL	0.8 µg/mL (≈ 1.81 µM)	0.5 µg/mL (≈ 1.13 µM)	0.5 µg/mL (≈ 1.13 µM)	0.1 to 0.2 µg/mL (≈ 0.227 to 0.453 µM)	0.1 to 0.2 µg/mL (≈ 0.227 to 0.453 µM)	> 25.6 µg/mL	> 25.6 µg/mL	0.1 µg/mL (≈ 0.227 µM)	0.2 µg/mL (≈ 0.453 µM)	> 25.6 µg/mL	> 25.6 µg/mL	> 25.6 µg/mL	0.4 µg/mL (≈ 0.906 µM)	MIC S. aureus T5595 (S. aureus T5595; 18 h): 0.2 µg/mL (≈ 0.453 µM); MIC S. aureus T5591 (S. aureus T5591; 18 h): 0.2 µg/mL (≈ 0.453 µM); MIC (E. coli 600): 0.8 µg/mL (≈ 1.81 µM); MIC (E. cloacae 8): 2 µg/mL (≈ 4.53 µM); MIC (K. pneumoniae 28): > 25.6 µg/mL; MIC (K. pneumoniae 510): > 25.6 µg/mL; MIC (M. tuberculosis H37Rv): 64 µg/mL (≈ 145 µM); MIC [3]: 64 µg/mL (≈ 145 µM); IC50 (PC3 cells): 63.4 ± 5.3 µM; IC50 at 72 h [4]: > 100 µM; times more powerful than CP ([6]; S. aureus T5595 and T5591): 1.25–2.5 times; MIC [6]: 0.1 to 0.8 µg/mL (≈ 0.227 to 1.81 µM)
O=C(O)c1cn(C2CC2)c2cc(N3CCN(CC(=O)N4CCN(c5cc6c(cc5F)c(=O)c(C(=O)O)cn6C5CC5)CC4)CC3)c(F)cc2c1=O [Compound 17, CP–Acetyl–CP Dimer]	0.4 µg/mL (≈ 0.569 µM)	1.6 µg/mL (≈ 2.28 µM)	0.2 µg/mL (≈ 0.285 µM)	0.8 µg/mL (≈ 1.14 µM)	0.2 µg/mL (≈ 0.285 µM)	0.4 µg/mL (≈ 0.569 µM)	> 25.6 µg/mL	6.4 µg/mL (≈ 9.11 µM)	1.6 µg/mL (≈ 2.28 µM)	0.4 µg/mL (≈ 0.569 µM)	0.8 µg/mL (≈ 1.14 µM)	1.6 µg/mL (≈ 2.28 µM)	25.6 µg/mL (≈ 36.4 µM)	12.8 to 25.6 µg/mL (≈ 18.2 to 36.4 µM)	0.2 µg/mL (≈ 0.285 µM)	1.6 µg/mL (≈ 2.28 µM)	> 25.6 µg/mL	> 25.6 µg/mL	> 25.6 µg/mL	3.2 µg/mL (≈ 4.55 µM)	MIC S. epidermidis 5253 (S. epidermidis 5253; 18 h): 25.6 µg/mL (≈ 36.4 µM); MIC (E. coli 600): 12.8 µg/mL (≈ 18.2 µM); MIC (E. cloacae 8): 25.6 µg/mL (≈ 36.4 µM); MIC (K. pneumoniae 28): > 25.6 µg/mL; MIC (K. pneumoniae 510): > 25.6 µg/mL; MIC (M. tuberculosis H37Rv): 32 µg/mL (≈ 45.5 µM); MIC [3]: 32 µg/mL (≈ 45.5 µM); IC50 (PC3 cells): 88.4 ± 10.6 µM; IC50 at 72 h [4]: 41.3 ± 5.2 µM; MIC [5]: 0.2 to 1.6 µg/mL (≈ 0.285 to 2.28 µM)
O=C(O)c1cn(C2CC2)c2cc(N3CCN(CCCCCC(=O)N4CCN(c5cc6c(cc5F)c(=O)c(C(=O)O)cn6C5CC5)CC4)CC3)c(F)cc2c1=O [Compound 20, CP–Hexanoyl–CP Dimer]	1.6 µg/mL (≈ 2.11 µM)	1.6 µg/mL (≈ 2.11 µM)	1.6 µg/mL (≈ 2.11 µM)	1.6 µg/mL (≈ 2.11 µM)	1.6 µg/mL (≈ 2.11 µM)	1.6 µg/mL (≈ 2.11 µM)	> 25.6 µg/mL	6.4 µg/mL (≈ 8.43 µM)	1 µg/mL (≈ 1.32 µM)	1 µg/mL (≈ 1.32 µM)	0.8 µg/mL (≈ 1.05 µM)	0.8 µg/mL (≈ 1.05 µM)	> 25.6 µg/mL	> 25.6 µg/mL	0.8 µg/mL (≈ 1.05 µM)	0.8 µg/mL (≈ 1.05 µM)	> 25.6 µg/mL	> 25.6 µg/mL	> 25.6 µg/mL	12.8 µg/mL (≈ 16.9 µM)	MIC (E. coli 600): 12.8 µg/mL (≈ 16.9 µM); MIC (E. cloacae 8): > 25.6 µg/mL; MIC (K. pneumoniae 28): > 25.6 µg/mL; MIC (K. pneumoniae 510): > 25.6 µg/mL; MIC (M. tuberculosis H37Rv): 32 µg/mL (≈ 42.2 µM); MIC [3]: 16 µg/mL (≈ 21.1 µM); IC50 (PC3 cells): 69.9 ± 7.2 µM; IC50 at 72 h [4]: 89.5 ± 5.9 µM

From PMC10233829 (ACS Omega, 2023)
